The results in this text go back to ChEMBL document CHEMBL3813663, “Aryl morpholino triazenes inhibit cytochrome P450 1A1 and 1B1” (Bioorg Med Chem Lett, 2016).

One series addresses CYP1A1 (Homo sapiens, UniProt P04798). The series can be described thus: in vitro.
The target in a further series is T1, CYP1B1 (Homo sapiens, UniProt Q16678).
T1 sequence (Q16678 whole entry): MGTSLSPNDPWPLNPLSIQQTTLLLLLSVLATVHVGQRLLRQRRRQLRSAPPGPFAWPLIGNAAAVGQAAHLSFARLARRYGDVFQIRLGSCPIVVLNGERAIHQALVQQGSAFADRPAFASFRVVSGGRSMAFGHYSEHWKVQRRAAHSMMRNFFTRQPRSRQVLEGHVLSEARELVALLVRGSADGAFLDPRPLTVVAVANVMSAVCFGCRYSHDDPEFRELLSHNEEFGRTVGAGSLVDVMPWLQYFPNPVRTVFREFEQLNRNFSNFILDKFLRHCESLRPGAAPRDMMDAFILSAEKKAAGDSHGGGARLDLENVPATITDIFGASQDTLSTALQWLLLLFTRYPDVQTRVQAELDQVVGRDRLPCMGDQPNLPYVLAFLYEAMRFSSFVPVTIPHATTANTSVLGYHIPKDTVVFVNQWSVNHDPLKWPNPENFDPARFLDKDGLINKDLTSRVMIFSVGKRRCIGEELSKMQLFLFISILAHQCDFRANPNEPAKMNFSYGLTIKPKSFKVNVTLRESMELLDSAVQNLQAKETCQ
The series can be described thus: in vitro.

The next series deals with T2, Cytochrome P450 1B1 (Homo sapiens, UniProt Q16678).
T2 sequence (Q16678 whole entry): T1 sequence (Q16678 whole entry)

Another series has as its target Cytochrome P450 1A1 (Homo sapiens, UniProt P04798).
The mark [1] stands for this setting: probe ethoxyresorufin (O-deethylation).

The IC50 is the point on the concentration scale where inhibition reaches its midpoint.

Cytochrome P450 1A1, sequence (P04798 whole entry): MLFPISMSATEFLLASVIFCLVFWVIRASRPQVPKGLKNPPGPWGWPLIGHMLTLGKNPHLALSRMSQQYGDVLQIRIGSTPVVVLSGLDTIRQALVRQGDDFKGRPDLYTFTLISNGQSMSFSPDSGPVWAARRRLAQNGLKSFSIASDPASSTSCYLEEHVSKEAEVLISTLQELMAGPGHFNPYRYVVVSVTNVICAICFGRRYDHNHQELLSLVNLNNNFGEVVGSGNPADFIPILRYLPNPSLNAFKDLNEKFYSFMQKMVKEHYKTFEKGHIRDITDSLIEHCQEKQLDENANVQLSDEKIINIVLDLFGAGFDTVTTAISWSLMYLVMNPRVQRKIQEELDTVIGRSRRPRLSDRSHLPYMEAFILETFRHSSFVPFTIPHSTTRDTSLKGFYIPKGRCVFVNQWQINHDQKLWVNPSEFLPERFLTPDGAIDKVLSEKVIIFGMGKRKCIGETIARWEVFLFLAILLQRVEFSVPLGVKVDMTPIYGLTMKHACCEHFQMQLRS
CYP1A1, sequence (P04798 whole entry): as above
Description for CYP1A1: Inhibition of recombinant human CYP1A1 expressed in Escherichia coli DH5aplha cells assessed as O-deethylation of ethoxyresorufin in presence of NADPH at 100 uM measured after 2 mins by spectrofluorometric method
Description for CYP1B1: Inhibition of recombinant human CYP1B1 expressed in Escherichia coli DH5aplha cells assessed as O-deethylation of ethoxyresorufin in presence of NADPH at 100 uM measured after 2 mins by spectrofluorometric method
Description for Cytochrome P450 1A1: Inhibition of recombinant human CYP1A1 expressed in Escherichia coli DH5aplha cells assessed as O-deethylation of ethoxyresorufin in presence of NADPH measured after 2 mins by spectrofluorometric method
Description for Cytochrome P450 1B1: Inhibition of recombinant human CYP1B1 expressed in Escherichia coli DH5aplha cells assessed as O-deethylation of ethoxyresorufin in presence of NADPH measured after 2 mins by spectrofluorometric method

On to `Nc1ccccc1` [ANILINE], for which the activity at 2 min, 100 µM on CYP1A1 (setting [1]) and at CYP1B1 (setting [1]) was 100% each time.
On to `Nc1ccc(Br)cc1` [4-BROMOANILINE], for which the activity at 2 min, 100 µM worked out at 100% on CYP1A1 (setting [1]) and 94% at CYP1B1 (setting [1]).
For `COc1cc(N)cc(OC)c1OC` the same measures were 95% and 100%.
`Nc1ccc(C(=O)O)cc1` [AMINOBENZOIC ACID] registered an IC50 against Cytochrome P450 1B1 greater than 120 µM. The activity at 2 min, 100 µM at CYP1A1 (setting [1]) came out at 100%; on CYP1B1 (setting [1]), 75%.
As for `O=C(O)c1ccc(/N=N/N2CCOCC2)cc1`, the IC50 is 167 µM at Cytochrome P450 1A1 and 400 µM against Cytochrome P450 1B1. The activity at 2 min, 100 µM was 67% at CYP1A1 (setting [1]) and 81% at CYP1B1 (setting [1]).
For the compound `O=[N+]([O-])c1ccc(/N=N/N2CCOCC2)cc1`, the IC50 on Cytochrome P450 1A1 came out at 115 µM; against Cytochrome P450 1B1 it was 2 µM. In addition, the activity at 2 min, 100 µM was determined as 79% on CYP1A1 (setting [1]) and 16% on CYP1B1.
As for `C1COCCN1` [MORPHOLINE], the results for the activity at 2 min, 100 µM at CYP1A1 and on CYP1B1 were 91% and 100%, respectively.
Consider `Brc1ccc(/N=N/N2CCOCC2)cc1`, for which the IC50 against Cytochrome P450 1A1 stood at 63 µM; against Cytochrome P450 1B1 it was 7 µM. Further, the activity at 2 min, 100 µM at CYP1A1 turned out to be 53%; on CYP1B1 (setting [1]) it was 59%.
In the case of `CC(=O)c1ccc(/N=N/N2CCOCC2)cc1`, at Cytochrome P450 1A1, the IC50 came to 82 µM. The activity at 2 min, 100 µM is 70% at CYP1A1 (setting [1]) and 100% at CYP1B1 (setting [1]).
Take `Nc1ccc([N+](=O)[O-])cc1` [4-NITROANILINE]: the results for the activity at 2 min, 100 µM at CYP1A1 (setting [1]) and at CYP1B1 (setting [1]) were 100% and 92%, respectively.
Turning to `Oc1ccc(/C=C/c2cc(O)cc(O)c2)cc1` [RESVERATROL], the IC50 amounted to 34 µM at Cytochrome P450 1A1 and 55 µM against Cytochrome P450 1B1. The figures for the activity at 2 min, 100 µM on CYP1A1 (setting [1]) and at CYP1B1 were 11% and 56%, respectively.
Consider `c1ccc(/N=N/N2CCOCC2)cc1`, for which the values for the IC50 at Cytochrome P450 1A1 and against Cytochrome P450 1B1 were 120 µM and 163 µM, respectively. In addition, the activity at 2 min, 100 µM amounted to 56% on CYP1A1 (setting [1]) and 74% at CYP1B1 (setting [1]).
As to `COc1cc(/N=N/N2CCOCC2)cc(OC)c1OC`, the IC50 on Cytochrome P450 1A1 stood at 10 µM; against Cytochrome P450 1B1 it was 18 µM. In addition, the activity at 2 min, 100 µM at CYP1A1 (setting [1]) came to 8%; at CYP1B1 (setting [1]), 14%.
